Publication PMC8584989 (International Journal of Molecular Sciences, 2021)
Like-named read-outs stand apart in the source and are kept apart here.

Columns and labels:
ABCB1 [1] = biological target: T1, ABCB1 (Homo sapiens, UniProt P08183); experiment: Inhibitory accumulation assay in MDCKII-ABCB1 cells; format: cell-based
Procedure: (§1) Accumulation assays were performed as described previously. […] The daunorubicin and mitoxantrone accumulation assays were performed in above mentioned cell lines and were also adopted to primary NSCLC cultures. […] Cells were incubated up to 70-80% confluence for approximately 24 h. […] The cells there trypsinized on ice, resuspended with 2% FBS in cold PBS solution and then fluorescence was detected using flow cytometer (BD FACSCanto II, Allschwil, Switzerland). […] For data presentation, the ratios of relative fluorescence units (RFUs) from treated samples to RFUs from vehicle-treated (control) cells were computed generating “relative substrate accumulation”.

ABCG2 = biological target: T2, ABCG2 (Homo sapiens, UniProt Q9UNQ0); experiment: Inhibitory accumulation assay in MDCKII-ABCG2 cells; format: cell-based
T2 sequence (Q9UNQ0 1-655): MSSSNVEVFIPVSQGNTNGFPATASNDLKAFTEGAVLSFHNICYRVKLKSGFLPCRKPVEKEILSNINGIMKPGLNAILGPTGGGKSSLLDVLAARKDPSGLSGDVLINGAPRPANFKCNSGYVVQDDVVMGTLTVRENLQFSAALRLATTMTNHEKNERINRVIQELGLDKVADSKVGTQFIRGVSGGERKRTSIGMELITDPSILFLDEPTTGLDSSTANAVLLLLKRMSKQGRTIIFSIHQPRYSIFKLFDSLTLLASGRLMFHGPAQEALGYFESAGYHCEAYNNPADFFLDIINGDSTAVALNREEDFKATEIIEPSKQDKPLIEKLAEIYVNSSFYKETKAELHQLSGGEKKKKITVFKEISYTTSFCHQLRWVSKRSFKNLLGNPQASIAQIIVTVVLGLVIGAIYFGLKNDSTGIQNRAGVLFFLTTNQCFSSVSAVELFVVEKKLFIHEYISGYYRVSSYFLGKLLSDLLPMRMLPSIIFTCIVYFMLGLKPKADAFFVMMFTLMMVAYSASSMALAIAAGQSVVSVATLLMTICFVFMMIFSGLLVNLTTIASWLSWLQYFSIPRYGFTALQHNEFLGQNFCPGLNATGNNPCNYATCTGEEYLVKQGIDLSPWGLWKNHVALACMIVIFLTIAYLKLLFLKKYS
Procedure: as §1

A431-par cells = experiment: MTT proliferation / drug combination assay; format: cell-based; details: 48 h, read-out: A431-par IC50
Procedure: (§2) These colorimetric assays were used in various studies presented in this paper (prior induction studies, MDR reversal experiments and comparative viability assays) and were performed as reported previously. […] In MTT experiments, cells were seeded on a 96-well culture plate at densities (in number of cells/well) of 1.3 × 10^4 for MDCKII-par, MDCKII-ABCB1 and MDCKII-ABCG2; 1.2 × 10^4 for A431-par, A431-ABCB1, A431-ABCG2 and A431-ABCC1; 1.2 × 10^4 for NCI-H1299; 1.0 × 10^4 for A459; 2.0 × 10^4 for Caco-2; 5.0 × 10^4 for LS174T; and 1.0 × 10^4 for primary NSCLC explants. On the other hand, for XTT cells were seeded with densities 2.0 × 10^4 for HL60-par, HL60-ABCB1, HL60-ABCG2 and HL60-ABCC1 cells/well on 96-well plates. […] Following 48 h incubation with drugs, Opti-MEM solutions of MTT or XTT (1 mg/mL) with phenazine methosulfate solution (7.50 μg/mL; only for XTT) was added and the cells were incubated for 1 h with the exception of HL60s that were incubated for 5 h.
(§3) Based on the computed CI values, the effects of drug combinations were classified as synergistic (CI < 0.9), additive (0.9 < CI < 1.1) or antagonistic (CI > 1.1).

HL60-par cells = experiment: XTT proliferation / drug combination assay; format: cell-based; details: 48 h, read-out: HL60-par IC50
Procedure: as §2, §3

[2] = test system: ABC transporters and CYPs; experiment: Gene expression (induction) studies by qRT-PCR; format: cell-based, human; details: 1.5 µM tepotinib; DI-related models, NSCLC cell lines and primary NSCLC cultures
Procedure: Gene expression studies were performed employing quantitative real-time reverse transcription PCR (qRT-PCR) technique as described in our previous papers.
The Caco-2, LS174T, A549, NCI-H1299 cells or primary lung cancer cells were seeded on 12-well plates with the densities of 50 × 10^4, 100 × 10^4, 24 × 10^4, 18 × 10^4 or 15 × 10^4 cells/well, respectively, and incubated for 24 h. […] Samples were collected at 24 h and 48 h intervals after drug treatment using TRI Reagent and then, mRNA isolation was performed. Agarose gel electrophoresis was used for the control of RNA quality and integrity and the RNA yield was monitored via NanoDrop ND-1000 spectrophotometer (American Laboratory Trading, East Lyme, CT, USA). RNA (1000 ng) was transcribed to cDNA using gb Reverse Transcription Kit. ABCB1, ABCG2 and ABCC1 mRNA expressions were detected with Master Mix and TaqMan-based qRT-PCR systems using QuantStudio 6 (Life Technologies, Carlsbad, CA, USA). […]
In the case of the HepaFH3 hepatocytes, first, viability was analyzed with CellTiter-Glo 2.0 Viability Assay; the luminescence was measured using a microplate reader (FLUOstar Omega, BMG Labtech, Ortenberg, Germany). […] RNA integrity and quality was checked by agarose gel electrophoresis and the concentration assessed by NanoDrop. […]

ABCB1 [3] = biological target: T1, ABCB1; details: DI study in healthy subjects; cited from earlier work
[4] = 8 µM hoechst 33342, read-out: IC50, relative Hoechst 33342 accumulation

T1 sequence (P08183 whole entry): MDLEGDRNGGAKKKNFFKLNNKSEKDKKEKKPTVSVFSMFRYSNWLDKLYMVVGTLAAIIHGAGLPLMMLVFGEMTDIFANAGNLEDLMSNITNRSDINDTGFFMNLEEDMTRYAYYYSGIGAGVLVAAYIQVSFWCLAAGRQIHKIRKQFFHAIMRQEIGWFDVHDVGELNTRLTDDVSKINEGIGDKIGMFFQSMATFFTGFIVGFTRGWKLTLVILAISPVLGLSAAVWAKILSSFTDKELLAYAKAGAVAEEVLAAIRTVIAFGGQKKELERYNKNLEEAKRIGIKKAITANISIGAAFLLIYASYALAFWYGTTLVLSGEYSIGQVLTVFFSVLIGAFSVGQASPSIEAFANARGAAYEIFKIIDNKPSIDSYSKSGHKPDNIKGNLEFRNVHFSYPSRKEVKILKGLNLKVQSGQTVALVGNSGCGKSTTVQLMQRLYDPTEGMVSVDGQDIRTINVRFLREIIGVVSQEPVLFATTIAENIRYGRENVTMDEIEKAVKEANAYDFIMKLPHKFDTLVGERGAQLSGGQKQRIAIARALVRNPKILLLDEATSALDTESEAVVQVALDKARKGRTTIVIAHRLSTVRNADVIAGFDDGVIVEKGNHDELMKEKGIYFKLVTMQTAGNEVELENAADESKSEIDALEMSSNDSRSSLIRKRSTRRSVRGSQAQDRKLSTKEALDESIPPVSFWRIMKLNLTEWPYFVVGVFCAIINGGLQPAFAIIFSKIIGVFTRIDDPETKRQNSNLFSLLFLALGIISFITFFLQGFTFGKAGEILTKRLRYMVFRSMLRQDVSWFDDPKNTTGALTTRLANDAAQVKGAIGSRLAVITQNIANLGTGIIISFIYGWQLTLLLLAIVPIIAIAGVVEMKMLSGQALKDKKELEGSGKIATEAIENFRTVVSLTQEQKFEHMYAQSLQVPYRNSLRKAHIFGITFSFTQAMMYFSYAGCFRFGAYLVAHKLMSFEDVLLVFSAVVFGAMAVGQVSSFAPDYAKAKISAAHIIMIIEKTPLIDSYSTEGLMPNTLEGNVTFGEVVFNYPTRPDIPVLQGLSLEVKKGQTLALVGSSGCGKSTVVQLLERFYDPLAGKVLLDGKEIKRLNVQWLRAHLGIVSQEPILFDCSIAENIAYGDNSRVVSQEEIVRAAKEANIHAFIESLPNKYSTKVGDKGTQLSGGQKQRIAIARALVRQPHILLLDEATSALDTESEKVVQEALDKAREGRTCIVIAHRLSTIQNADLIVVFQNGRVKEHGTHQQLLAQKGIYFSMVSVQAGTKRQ

CN1CCC(COc2cnc(-c3cccc(Cn4nc(-c5cccc(C#N)c5)ccc4=O)c3)nc2)CC1 [tepotinib, Tepotinib]
IC50 (ABCB1 [1]; 2 µM daunorubicin, 1 h, read-out: IC50, relative daunorubicin accumulation): 1.28 µM
IC50 (ABCB1 [1]; [4]): 3.15 µM
IC50 (ABCG2; 5 µM mitoxantrone, 1 h, read-out: IC50, relative mitoxantrone accumulation): 29.9 µM
IC50 (ABCG2; [4]): 15.8 µM
IC50 (A431-par cells): 15.7 µM
IC50 (HL60-par cells): 19.5 µM
Effect on expression of clinically relevant ABC transporters and CYPs [2]: did not influence expression
Effect on AUC and Cmax of ABCB1 substrate dabigatran etexilate (ABCB1 [3]): significantly increased AUC and Cmax
